Source: patent US20090270459A1, “Flea control agent containing N-Substituted indole derivative” (priority 2001, published 2009)

How the values were obtained:
adult cat fleas = experiment: Effect on cat flea (1): glass tube residue contact test, knock-down and mortality; type: in vivo, cat flea (Ctenocephalides felis); parameters: After 3 hours (KD) knocking-down rate: unit not given here
Experimental: Each compound was dissolved in acetone to a predetermined concentration and 0.1 ml of the resulting solution was dropped into the bottom of a glass tube with a diameter of 2.8 cm and a height of 12 cm and air-dried. After the air-drying, 10 adult cat fleas were placed in the glass tube and the glass tube was closed with nylon mesh and allowed to stand under conditions of a room temperature of 26° C. and a humidity of 80%. The knocked-down (KD) fleas after 3 hours and the dead and alive after 24 hours and 48 hours were counted, and the knocking-down rate and the mortality were calculated. Fipronil was used as a positive control. In a control experiment, no treatment with an agent was carried out.

[1] = test system: cat fleas parasitic on a cat; experiment: Effect on cat flea (2): spot-on of 10% liquid drops on flea-infested cat, cumulative fall rate; type: in vivo, cat flea (Ctenocephalides felis) on cat; conditions: 0.5 ml of 10% solution spot-on
Experimental: Fleas that had fallen from the cat body were counted at intervals of 2 hours until 8 hours after the dropping of the solution, and the cumulative fall rate was calculated. In addition, fleas that had fallen in 24 hours were counted and the cumulative fall rate after 1 day was calculated. Two days after the dropping, the living fleas on the cat body were counted by the use of a flea-removing comb.

std:ddy strain male mice = experiment: Toxicity to mouse, administration into the stomach; type: in vivo
Experimental: The compound listed in Table 1 or Fipronil was dissolved in olive oil to a predetermined concentration, and the resulting solution was directly administered into the stomachs of std:ddy strain male mice by the use of a probe. The dose was 30 mg/kg or 100 mg/kg. Whether the mice were alive or dead was observed 3 hours, 1 day, 7 days and 14 days after the administration.

[2] = test system: adult cat fleas made parasitic on the cat body; experiment: Effect on cat flea (3): residual effect after spot-on of 10% liquid drops on cat, re-infestation; type: in vivo, cat flea (Ctenocephalides felis) on cat; conditions: for Number of living fleas on the second day after inoculation: 30 fleas inoculated
Text: After the dropping, 30 adult cat fleas were made parasitic on the cat body after a predetermined number of weeks. On the second day after this inoculation with the parasites, the living fleas on the cat body were counted by the use of a flea-removing comb.

cat = experiment: Toxicity to cat, spot-on dropping of liquid drops; conditions: for Clinical symptom: 0.5 ml spot-on, cat, listed as No. 17
Text: After the dropping, the clinical symptom of the cat was observed.

Structure (SMILES): FC(Cl)(Cl)Sc1cn(-c2c(Cl)cc(C(F)(F)F)cc2Cl)c2ccccc12 [Compound 17, 1-(2,6-dichloro-4-trifluoromethylphenyl)-3-(dichlorofluoromethylthio)indole]
- After 3 hours (KD) knocking-down rate (adult cat fleas; 0.001 mg/tube): 0
- After 1 day (mortality) (adult cat fleas; 0.001 mg/tube): 10%
- After 2 days (mortality) (adult cat fleas; 0.001 mg/tube): 40%
- After 3 hours (KD) knocking-down rate (adult cat fleas; 0.01 mg/tube): 0
- After 1 day (mortality) (adult cat fleas; 0.01 mg/tube): 70%
- After 2 days (mortality) (adult cat fleas; 0.01 mg/tube): 100%
- After 3 hours (KD) knocking-down rate (adult cat fleas; 0.1 mg/tube): 0
- After 1 day (mortality) (adult cat fleas; 0.1 mg/tube): 100%
- After 2 days (mortality) (adult cat fleas; 0.1 mg/tube): 100%
- After 1 day (mortality) (adult cat fleas; 1 mg/tube): 100%
- After 2 days (mortality) (adult cat fleas; 1 mg/tube): 100%
- After 3 hours (KD) knocking-down rate (adult cat fleas; 1 mg/tube, 10 adult cat fleas, 26° C., humidity 80%): 50
- Fate of the fleas that had fallen from the cat body [1]: died within several hours
- Cumulative fall rate (%) After 4 hours ([1]; after 4 hours): 15%
- Cumulative fall rate (%) After 6 hours ([1]; after 6 hours): 37%
- Cumulative fall rate (%) After 8 hours ([1]; after 8 hours): 47%
- Cumulative fall rate (%) After 24 hours ([1]; after 24 hours): 100%
- Cumulative fall rate (%) After 2 hours ([1]; cat with 30 cat fleas, after 2 hours): 0%
- Cumulative mortality After 1 day (std:ddy strain male mice; 30 mg/kg): 0/5
- Cumulative mortality After 7 days (std:ddy strain male mice; 30 mg/kg): 0/5
- Cumulative mortality After 14 days (std:ddy strain male mice; 30 mg/kg): 0/5
- Cumulative mortality After 3 hours (std:ddy strain male mice; 30 mg/kg into the stomach, in olive oil, male mice): 0/5
- Cumulative mortality After 3 hours (std:ddy strain male mice; 100 mg/kg): 0/5
- Cumulative mortality After 1 day (std:ddy strain male mice; 100 mg/kg): 0/5
- Cumulative mortality After 7 days (std:ddy strain male mice; 100 mg/kg): 0/5
- Cumulative mortality After 14 days (std:ddy strain male mice; 100 mg/kg): 0/5
- Duration of the aftereffect ([2]; 0.5 ml of 10% solution spot-on, cat): about 6 weeks
- Number of living fleas on the second day after inoculation ([2]; 1 week after administration, 0.5 ml of 10% solution): 0
- Number of living fleas on the second day after inoculation ([2]; 2 weeks after administration): 0
- Number of living fleas on the second day after inoculation ([2]; 4 weeks after administration): 0
- Number of living fleas on the second day after inoculation ([2]; 6 weeks after administration): 6
- Number of living fleas on the second day after inoculation ([2]; 6 weeks after administration, listed as No. 17): six
- Number of living fleas on the second day after inoculation ([2]; 8 weeks after administration): 13
- Number of living fleas on the second day after inoculation ([2]; 8 weeks after administration, listed as No. 17): thirteen
- Killing of the fleas until 4 weeks after the dropping ([2]; until 4 weeks after the dropping): completely killed the fleas
- Toxicity to cat (cat; 10, 20 or 30% liquid drops spot-on): only low toxicity
- Clinical symptom (cat; dropping concentration 10%): no abnormal sign
- Clinical symptom (cat; dropping concentration 20%): no abnormal sign
- Clinical symptom (cat; dropping concentration 30%): no abnormal sign
